According to publication PMC4503722, “Novel Phenotypic Outcomes Identified for a Public Collection of Approved Drugs from a Publicly Accessible Panel of Assays” (PLoS ONE, 2015):
Where two headings read alike, the source gives them in different places.

Columns and labels:
Assay in all cases: cells
[1] = tested on: endothelial tube formation in co-cultures of ECFCs and ADSCs treated with VEGF; type: cell-based, human; conditions: Homo sapiens, IC50 / EC50; endothelial tube area, ADSC/ECFC co-culture; read-out: Anti-Angiogenesis
[2] = tested on: nuclear β-catenin in C2C12 cells; type: cell-based; conditions: Mus musculus
INS-1E cells = type: cell-based, rat; conditions: Rattus norvegicus, INS-1E
NCI-H716 cells = type: cell-based, Human; conditions: Homo sapiens, NCI-H716
HeLa cells = type: cell-based; conditions: Homo sapiens, HeLa, HeLa, read-out: CellCycle G2/M
HT-29 = type: cell-based; conditions: Homo sapiens, HT-29
SNU-C1 = type: cell-based; conditions: Homo sapiens
DLD-1 = type: cell-based; conditions: Homo sapiens
SW480 = type: cell-based; conditions: Homo sapiens
HCT116 = type: cell-based; conditions: Homo sapiens
[3] = tested on: HCT116 cells treated with a GSK3β inhibitor; type: cell-based; conditions: Homo sapiens
Colo320 = type: cell-based
RKO = type: cell-based
[4] = C2C12, IC50 / EC50, C2C12 beta-catenin translocation, read-out: Wnt Pathway
[5] = IC50 / EC50, read-out: Insulin Secretion
[6] = IC50 / EC50, read-out: GLP 1 Secretion
[7] = read-out: Basal_Viability ATP HT-29
[8] = S2 Table, 20 = no response at highest concentration
[9] = DLD-1, basal, DLD-1, read-out: Basal_Viability ATP DLD-1
[10] = SW480, basal, SW480, read-out: Basal_Viability ATP SW480
[11] = HCT-116, basal, HCT116, read-out: Basal_Viability ATP HCT116
[12] = HCT-116, HCT116 pretreated with GSK3b inhibitor, read-out: GSK3b inh pretreated_Viability ATP HCT116
[13] = Homo sapiens; basal; Colo 320; read-out: Basal_Viability ATP Colo 320
[14] = basal, read-out: Basal_Viability ATP HT-29
[15] = Homo sapiens; basal; RKO; read-out: Basal_Viability ATP RKO
[16] = SNU-C1, basal, SNU-C1, read-out: Basal_Viability ATP SNU-C1
[17] = C2C12, Table 2, C2C12, […], 20 / 20.1 coded, read-out: Wnt pot. EC50
[18] = DLD-1, 72 h, Table 2, 72 h, Cell TiterGlo, non-adherent, 20 coded, read-out: DLD-1 viab. IC50
[19] = Homo sapiens, COLO 320, read-out: Basal_Viability ATP Colo 320
[20] = Homo sapiens, COLO 320; Table 2; 72 h, Cell TiterGlo, non-adherent; 20 coded; read-out: Colo320 viab. IC50
[21] = Table 2, 72 h, Cell TiterGlo, non-adherent, 20 coded, read-out: HT-29 viab. IC50
[22] = Homo sapiens, RKO; Table 2; 72 h, Cell TiterGlo, non-adherent; 20 coded; read-out: RKO viab. IC50
[23] = SNU-C1, 72 h, Table 2, 72 h, Cell TiterGlo, non-adherent, 20 coded, read-out: SNU-C1 viab. IC50

| Structure (SMILES) | EC50 [2, 4] [µM] | EC50 (INS-1E cells; [5]) [µM] | EC50 (NCI-H716 cells; [6]) [µM] | EC50 (HeLa cells; IC50 / EC50) [µM] | IC50 (HT-29; [7]) [µM] | EC50 (INS-1E cells; read-out: Insulin Secretion) [µM] | EC50 (NCI-H716 cells; read-out: GLP 1 Secretion) [µM] | EC50 (HeLa cells; [8]) [µM] | IC50 (DLD-1; [9]) [µM] | IC50 (SW480; [10]) [µM] | IC50 (HCT116; [11]) [µM] | IC50 [3, 12] [µM] | IC50 (Colo320; [13]) [µM] | IC50 (HT-29; [14]) [µM] | IC50 (RKO; [15]) [µM] | IC50 (SNU-C1; [16]) [µM] | EC50 [2, 17] [µM] | EC50 (INS-1E cells; read-out: Ins. sec. EC50) [µM] | EC50 (NCI-H716 cells; read-out: GLP1 sec. EC50) [µM] | IC50 (DLD-1; [18]) [µM] | other results |
| --- | --- | --- | --- | --- | --- | --- | --- | --- | --- | --- | --- | --- | --- | --- | --- | --- | --- | --- | --- | --- | --- |
| CC(C)=CCNc1ncnc2c1ncn2[C@@H]1O[C@H](CO)[C@@H](O)[C@H]1O [Riboprine] | > 10 | > 10 | > 10 | > 10 | > 20 |  |  |  |  |  |  |  |  |  |  |  |  |  |  |  | IC50 [1]: 2.66 µM; IC50 (SNU-C1; SNU-C1, read-out: Basal_Viability ATP SNU-C1): 9.01 µM |
| Nc1nc(Cl)nc2c1ncn2[C@@H]1O[C@H](CO)[C@@H](O)[C@@H]1F [clofarabine] |  |  |  |  |  | > 10 | > 10 | > 10 | 0.164 | 1.2 | 0.001 | 0.001 | > 20 | > 20 | 0.001 | > 20 |  |  |  |  | EC50 ([2]; C2C12, S2 Table, module primary assay, 20 / 20.1 codes per legend, read-out: Wnt Pathway): > 10 µM |
| CC[C@H]1CN2CCc3cc(OC)c(OC)cc3[C@@H]2C[C@@H]1C[C@H]1NCCc2cc(OC)c(OC)cc21 [emetine] | > 10 | > 10 | > 10 | > 10 | 0.0163 |  |  |  |  |  |  |  |  |  |  |  |  |  |  |  | IC50 (DLD-1; DLD-1, basal, read-out: Basal_Viability ATP DLD-1): 0.0116 µM; IC50 (SW480; SW480, basal, read-out: Basal_Viability ATP SW480): 0.001 µM; IC50 (HCT116; HCT-116, basal, read-out: Basal_Viability ATP HCT116): 0.0615 µM; IC50 ([3]; HCT-116, GSK3b inhibitor pretreated, read-out: GSK3b inh pretreated_Viability ATP HCT116): 0.001 µM; IC50 (Colo320; Homo sapiens, COLO 320; read-out: Basal_Viability ATP Colo 320): 0.0221 µM; IC50 (RKO; Homo sapiens, RKO; read-out: Basal_Viability ATP RKO): 0.00831 µM; IC50 (SNU-C1; SNU-C1, basal, read-out: Basal_Viability ATP SNU-C1): 0.00228 µM |
| CC(C)n1c(/C=C/C(O)CC(O)CC(=O)O)c(-c2ccc(F)cc2)c2ccccc21 (stereo not shown) [fluvastatin, reference compound] |  |  |  |  |  |  |  | > 10 |  |  |  |  |  |  |  |  | > 10 | > 10 | > 10 | > 20 | IC50 (Colo320; [19]): 13 µM; IC50 (Colo320; [20]): 13 µM; IC50 (HT-29; [21]): > 20 µM; IC50 (RKO; Homo sapiens, RKO, read-out: Basal_Viability ATP RKO): 19.2 µM; IC50 (RKO; [22]): 19.2 µM; IC50 (SNU-C1; [23]): > 20 µM |
| CCC(C)(C)C(=O)O[C@H]1C[C@@H](C)C=C2C=C[C@H](C)[C@H](CC[C@@H]3C[C@@H](O)CC(=O)O3)[C@H]21 [simvastatin, reference compound] |  |  |  |  |  |  | 3.29 | > 10 |  |  |  | 4.73 | 4.94 |  |  |  | > 10 | > 10 | 3.3 | > 20 | IC50 (SW480; SW480, 72 h, Table 2, 72 h, Cell TiterGlo, non-adherent, 20 coded, read-out: SW480 viab. IC50): 5.9 µM; IC50 (SW480; SW480, read-out: Basal_Viability ATP SW480): 5.93 µM; IC50 (HCT116; HCT-116, 72 h, read-out: HCT-116 viab. IC50, Table 2, basal, 72 h, Cell TiterGlo, non-adherent, 20 coded): > 20 µM; IC50 ([3]; HCT-116, read-out: HCT-116 (GSK3β) viab. IC50, Table 2, GSK3β inhibitor LY2090314 20 nM, 72 h, Cell TiterGlo, 20 coded): 4.7 µM; IC50 (Colo320; [20]): 4.9 µM; IC50 (HT-29; [21]): > 20 µM; IC50 (RKO; [22]): > 20 µM; IC50 (SNU-C1; [23]): > 20 µM |
| CC[C@@]1(O)C(=O)OCc2c1cc1n(c2=O)Cc2cc3c(CN(C)C)c(O)ccc3nc2-1 [topotecan] |  |  |  |  |  | > 10 | > 10 | > 10 | 0.177 | 0.233 | 0.0341 | 0.00144 |  | 0.0246 | 0.0342 | 0.301 |  |  |  |  | EC50 ([2]; C2C12, read-out: Wnt Pathway): 0.0179 µM; IC50 (Colo320; [19]): 9.42 µM |
